According to publication PMC3479105, “K-134, a Phosphodiesterase 3 Inhibitor, Prevents Brain Damage by Inhibiting Thrombus Formation in a Rat Cerebral Infarction Model” (PLoS ONE, 2012):
Like-named read-outs stand apart in the source and are kept apart here.

Assays:
[1] = Pharmacokinetics of cilostazol and its active metabolites in rats; format: in vivo, rat; conditions: single oral cilostazol 300 mg/kg, non-fasting male SD rats, n = 3; parent and metabolites
Experimental: Pharmacokinetic variables (Cmax, AUC, Tmax and T1/2) were calculated from the plasma drug concentration-time curve. Cilostazol was orally administered to rats under non-fasting conditions at a single dose of 300 mg/kg to determine the concentration-time profile in serum (n = 3). Values are means (± SEM). […]

[2] = set-up: method as in PMID 10702882; conditions: human healthy male, single dose 100 mg of cilostazol, cited from earlier work
[3] = system: platelets; set-up: method as in earlier work; conditions: cited from earlier work
[4] = Electron spin resonance (ESR) radical scavenging; conditions: ESR experiments, data not shown
From the text: In the photothrombotic cerebral infarction model, photoactivation of rose bengal by illumination with green light results in reactive oxygen intermediates (predominantly singlet oxygen and superoxide). […] Therefore, we concluded that the observed inhibitory effects of K-134 on photothrombosis in this model are relevant to its antiplatelet activity but not radical scavenging activity.

[5] = converted from µg/L, read-out: Cmax

Compound | AUC0-24h [1] [µM·h] | Cmax [1] [nM] | T1/2 [1] [h] | Cmax [2, 5] [nM] | AUC0–72 h ([2]; converted from µg/L·h) [µM·h] | AUC0–72 h [2] [ng·h/mL] | Cmax [2] [ng/mL] | antiplatelet activity, times less potent than cilostazol [3] [times] | Tmax [1] [h] | scavenging activities against singlet oxygen and superoxide anion radical [4] | antiplatelet activity, times more potent than cilostazol [3] [times]
O=C1CCc2cc(OCCCCc3nnnn3C3CCC(O)CC3)ccc2N1 (stereo not drawn) [OPC-13213] | 127.3 | 9100 | 6.1 | 170 | 1.60 | ~617 | ~64 | 3 |  |  | 
O=c1ccc2cc(OCCCCc3nnnn3C3CCCCC3)ccc2[nH]1 [OPC-13015] | 18.3 | 1400 | 6.8 | 330 | 6.59 | ~2423 | ~122 |  | 3.2 | did not show scavenging activities | 3
